Results published in publication PMC5762338, “A novel orally available Syk/Src/Jak2 inhibitor, SKLB-850, showed potent anti-tumor activities in B cell lymphoma (BCL) models” (Oncotarget, 2017).
Values joined by “and” are separate entries in the source; they are usually repeats but may differ in a detail not shown here. Equal values may be shown once.

Tests used:
[1] = system: HBL-1; experiment: MTT anti-viability assay; assay type: cell-based; settings: HBL1, HBL-1, Human diffuse large B cell lymphoma, 72 hours
Procedure: (§1) In vitro anti-viability activities of SKLB-850 against various tumor cell lines were measured using the MTT method.
(§2) Human cancer cell lines Ramos-ZHL, HBL-1, SuDHL-6, LY-10, LY-1, RAJI, MDA-MB-231, SW1990, SMMC7721, MCF-7, CFPAC-1, HPAC, A549 and H358 were obtained from American Type Culture Collection (ATCC). All tumor cell lines were maintained according to the ATCC procedures and passaged for less than 6 months after receipt for resuscitation. These cells were cultured in RPMI-1640 supplemented with 10% fetal bovine serum (FBS).
(§3) Cell proliferation was measured using the MTT assay as previously described. Various cells including were treated with indicated concentrations of SKLB-850 for 72 hours. R788 (Selleck.cn) was served as a positive control. Each assay was replicated 3 times.

[2] = system: HPAC; experiment: MTT anti-viability assay; assay type: cell-based; settings: Human pancreatic cancer cell, 72 hours
Procedure: as §1, §2, §3

[3] = system: Ramos-ZHL; experiment: MTT anti-viability assay; assay type: cell-based; settings: Human B cell lymphoma, 72 hours
Procedure: as §1, §2, §3

[4] = system: SuDHL-6; experiment: MTT anti-viability assay; assay type: cell-based; settings: SU-DHL-6, SuDHL-6, Human follicular B cell lymphoma, 72 hours
Procedure: as §1, §2, §3

[5] = system: RAJI; experiment: MTT anti-viability assay; assay type: cell-based; settings: Human B cell lymphoma, 72 hours
Procedure: as §1, §2, §3

[6] = system: LY-1; experiment: MTT anti-viability assay; assay type: cell-based; settings: Ly1, LY-1, Human diffuse large B cell lymphoma, 72 hours
Procedure: as §1, §2, §3

[7] = system: A549; experiment: MTT anti-viability assay; assay type: cell-based; settings: A549, Human non-small cell lung cancer cells, 72 hours
Procedure: as §1, §2, §3

[8] = system: CFPAC-1; experiment: MTT anti-viability assay; assay type: cell-based; settings: CFPAC-1, Human pancreatic cancer cell, 72 hours
Procedure: as §1, §2, §3

[9] = system: SMMC7721; experiment: MTT anti-viability assay; assay type: cell-based; settings: SMMC-7721, SMMC7721, Human hepatocellular carcinoma cell, 72 hours
Procedure: as §1, §2, §3

[10] = system: MCF-7; experiment: MTT anti-viability assay; assay type: cell-based; settings: MCF7, MCF-7, Human breast cancer cell, 72 hours
Procedure: as §1, §2, §3

[11] = system: MDA-MB-231; experiment: MTT anti-viability assay; assay type: cell-based; settings: MDA-MB-231, Human breast cancer cell, 72 hours
Procedure: as §1, §2, §3

[12] = system: SW1990; experiment: MTT anti-viability assay; assay type: cell-based; settings: SW1990, Human pancreatic cancer cell, 72 hours
Procedure: as §1, §2, §3

[13] = system: H358; experiment: MTT anti-viability assay; assay type: cell-based; settings: 72 hours
Procedure: as §1, §2, §3

[14] = system: LY-10; experiment: MTT anti-viability assay; assay type: cell-based; settings: LY10, LY-10, Human diffuse large B cell lymphoma, 72 hours
Procedure: as §1, §2, §3

[15] = target: T1, Pim-1 (Homo sapiens, UniProt P11309); experiment: Kinase inhibition, 33P radiometric assay (Millipore Kinase Profiler); assay type: biochemical
T1 construct: purchased Millipore (Kinase Profiler service)
Procedure: (§4) Kinase inhibitory potency of SKLB-850 against a number of selected kinases were measured with gold-standard^33 P radio-labeled technology. […] For the remaining 11 kinases tested, SKLB-850 exibited very weak or no activity (IC50 > 10 μM).
(§5) The IC50 values of SKLB-850 for kinase inhibition in vitro were measured by radiometric assays conducted by Kinase Profiler service provided by Millipore as described in Pan’s study.

[16] = target: T2, mTOR (Homo sapiens, UniProt P42345); experiment: as above; assay type: biochemical
T2 construct: purchased Millipore (Kinase Profiler service)
Procedure: as §4, §5

[17] = target: T3, FAK (Homo sapiens, UniProt Q05397); experiment: as above; assay type: biochemical
T3 construct: purchased Millipore (Kinase Profiler service)
Procedure: as §4, §5

[18] = target: T4, MKK4 (Mus musculus, UniProt P47809); experiment: as above; assay type: biochemical
T4 construct: purchased Millipore (Kinase Profiler service)
Procedure: as §4, §5

[19] = target: T5, GRK1 (Homo sapiens, UniProt Q15835); experiment: as above; assay type: biochemical
T5 construct: purchased Millipore (Kinase Profiler service)
Procedure: as §4, §5

[20] = target: T6, Syk (Homo sapiens, UniProt P43405); experiment: as above; assay type: biochemical
T6 construct: purchased Millipore (Kinase Profiler service)
Procedure: as §4, §5

[21] = target: T7, PKBα (Homo sapiens, UniProt P31749); experiment: as above; assay type: biochemical
T7 construct: purchased Millipore (Kinase Profiler service)
Procedure: as §4, §5

[22] = target: T8, GSK3β (Homo sapiens, UniProt P49841); experiment: as above; assay type: biochemical
T8 construct: purchased Millipore (Kinase Profiler service)
Procedure: as §4, §5

[23] = target: T9, EGRF (Homo sapiens, UniProt P00533); experiment: as above; assay type: biochemical; settings: EGRF (text: EGFR)
T9 construct: purchased Millipore (Kinase Profiler service)
Procedure: as §4, §5

[24] = target: T10, Pim-2 (Homo sapiens, UniProt Q9P1W9); experiment: as above; assay type: biochemical
T10 construct: purchased Millipore (Kinase Profiler service)
Procedure: as §4, §5

[25] = target: T11, JAK2 (Homo sapiens, UniProt O60674); experiment: as above; assay type: biochemical
T11 construct: purchased Millipore (Kinase Profiler service)
Procedure: as §4, §5

[26] = target: T12, GSK3α (Homo sapiens, UniProt P49840); experiment: as above; assay type: biochemical
T12 construct: purchased Millipore (Kinase Profiler service)
Procedure: as §4, §5

T9 sequence (P00533 25-1210): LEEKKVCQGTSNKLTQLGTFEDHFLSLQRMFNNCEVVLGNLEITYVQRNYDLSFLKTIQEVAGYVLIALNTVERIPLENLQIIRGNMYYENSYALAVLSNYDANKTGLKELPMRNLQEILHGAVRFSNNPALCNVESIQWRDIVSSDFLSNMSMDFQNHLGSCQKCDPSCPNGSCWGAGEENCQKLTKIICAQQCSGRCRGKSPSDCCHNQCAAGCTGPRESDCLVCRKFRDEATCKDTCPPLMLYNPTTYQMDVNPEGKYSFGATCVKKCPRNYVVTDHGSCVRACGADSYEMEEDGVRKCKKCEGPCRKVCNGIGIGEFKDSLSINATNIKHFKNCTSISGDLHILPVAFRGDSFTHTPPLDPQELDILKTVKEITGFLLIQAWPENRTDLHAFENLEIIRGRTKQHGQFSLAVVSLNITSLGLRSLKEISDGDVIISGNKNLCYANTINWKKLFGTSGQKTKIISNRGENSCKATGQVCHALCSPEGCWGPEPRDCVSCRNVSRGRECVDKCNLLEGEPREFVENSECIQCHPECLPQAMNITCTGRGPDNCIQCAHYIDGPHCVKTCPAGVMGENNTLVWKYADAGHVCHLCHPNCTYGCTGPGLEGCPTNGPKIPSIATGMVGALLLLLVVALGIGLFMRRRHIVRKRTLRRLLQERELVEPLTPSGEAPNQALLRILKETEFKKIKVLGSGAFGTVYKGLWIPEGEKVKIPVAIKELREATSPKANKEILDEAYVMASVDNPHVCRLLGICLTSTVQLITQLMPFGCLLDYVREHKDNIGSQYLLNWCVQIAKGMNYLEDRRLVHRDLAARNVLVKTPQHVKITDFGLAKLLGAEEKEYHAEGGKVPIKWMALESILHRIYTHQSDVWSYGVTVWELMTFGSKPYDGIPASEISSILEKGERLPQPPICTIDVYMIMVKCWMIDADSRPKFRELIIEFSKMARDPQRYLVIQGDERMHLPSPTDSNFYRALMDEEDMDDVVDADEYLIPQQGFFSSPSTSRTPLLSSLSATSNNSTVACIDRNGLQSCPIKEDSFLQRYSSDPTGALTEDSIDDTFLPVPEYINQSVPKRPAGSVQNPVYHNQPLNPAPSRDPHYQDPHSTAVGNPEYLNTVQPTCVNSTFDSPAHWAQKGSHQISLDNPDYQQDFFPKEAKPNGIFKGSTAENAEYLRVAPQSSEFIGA
T7 sequence (P31749 whole entry): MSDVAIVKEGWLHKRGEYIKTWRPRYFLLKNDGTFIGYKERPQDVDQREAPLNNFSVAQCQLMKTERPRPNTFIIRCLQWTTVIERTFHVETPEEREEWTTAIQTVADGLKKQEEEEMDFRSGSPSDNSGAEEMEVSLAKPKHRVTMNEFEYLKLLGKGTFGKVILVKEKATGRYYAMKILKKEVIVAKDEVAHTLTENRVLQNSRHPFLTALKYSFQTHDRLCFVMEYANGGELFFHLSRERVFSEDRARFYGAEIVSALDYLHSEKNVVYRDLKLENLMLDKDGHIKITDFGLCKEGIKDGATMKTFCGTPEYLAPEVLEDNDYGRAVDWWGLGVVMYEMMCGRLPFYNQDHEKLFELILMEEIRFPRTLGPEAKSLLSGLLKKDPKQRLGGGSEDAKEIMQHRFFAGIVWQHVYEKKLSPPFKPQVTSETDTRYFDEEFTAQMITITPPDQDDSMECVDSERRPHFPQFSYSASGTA
T4 sequence (P47809 2-397 limits assumed): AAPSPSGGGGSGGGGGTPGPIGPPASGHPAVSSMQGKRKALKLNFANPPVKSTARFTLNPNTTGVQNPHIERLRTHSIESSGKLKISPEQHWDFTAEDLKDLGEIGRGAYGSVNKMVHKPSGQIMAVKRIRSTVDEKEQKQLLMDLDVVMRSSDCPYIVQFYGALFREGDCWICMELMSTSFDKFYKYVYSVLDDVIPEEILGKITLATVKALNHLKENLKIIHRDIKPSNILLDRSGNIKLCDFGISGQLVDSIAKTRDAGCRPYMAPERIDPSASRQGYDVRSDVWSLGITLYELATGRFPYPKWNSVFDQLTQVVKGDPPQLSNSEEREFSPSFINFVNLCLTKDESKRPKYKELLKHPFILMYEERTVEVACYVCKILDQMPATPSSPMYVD
T5 sequence (Q15835 whole entry): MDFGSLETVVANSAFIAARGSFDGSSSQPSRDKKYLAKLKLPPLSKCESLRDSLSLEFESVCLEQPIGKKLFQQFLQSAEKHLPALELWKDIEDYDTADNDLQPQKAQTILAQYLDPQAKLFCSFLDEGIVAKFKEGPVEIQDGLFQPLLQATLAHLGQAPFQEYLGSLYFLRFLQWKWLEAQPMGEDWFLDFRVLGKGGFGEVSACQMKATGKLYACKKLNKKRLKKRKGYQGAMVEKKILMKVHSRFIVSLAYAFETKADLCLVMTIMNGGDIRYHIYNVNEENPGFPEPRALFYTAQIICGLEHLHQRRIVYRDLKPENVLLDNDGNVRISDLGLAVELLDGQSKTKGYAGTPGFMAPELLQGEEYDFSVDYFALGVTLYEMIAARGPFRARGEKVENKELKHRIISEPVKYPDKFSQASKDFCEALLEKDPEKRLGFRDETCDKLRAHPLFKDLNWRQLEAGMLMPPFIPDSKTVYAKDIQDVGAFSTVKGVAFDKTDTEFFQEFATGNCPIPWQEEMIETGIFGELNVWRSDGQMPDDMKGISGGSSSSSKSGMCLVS
T12 sequence (P49840 whole entry): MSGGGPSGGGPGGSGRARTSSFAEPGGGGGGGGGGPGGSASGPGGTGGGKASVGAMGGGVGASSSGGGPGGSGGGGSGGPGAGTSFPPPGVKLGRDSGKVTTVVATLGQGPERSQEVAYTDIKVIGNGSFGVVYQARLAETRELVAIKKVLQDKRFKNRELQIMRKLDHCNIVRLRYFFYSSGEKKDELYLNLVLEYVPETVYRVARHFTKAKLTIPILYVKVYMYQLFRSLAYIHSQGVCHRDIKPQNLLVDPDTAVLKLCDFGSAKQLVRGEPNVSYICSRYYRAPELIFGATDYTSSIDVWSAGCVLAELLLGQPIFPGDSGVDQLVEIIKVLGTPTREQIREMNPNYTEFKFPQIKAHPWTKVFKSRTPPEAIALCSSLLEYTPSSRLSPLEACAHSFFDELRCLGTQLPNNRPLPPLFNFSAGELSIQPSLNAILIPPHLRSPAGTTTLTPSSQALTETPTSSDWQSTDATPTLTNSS
T11 sequence (O60674 whole entry): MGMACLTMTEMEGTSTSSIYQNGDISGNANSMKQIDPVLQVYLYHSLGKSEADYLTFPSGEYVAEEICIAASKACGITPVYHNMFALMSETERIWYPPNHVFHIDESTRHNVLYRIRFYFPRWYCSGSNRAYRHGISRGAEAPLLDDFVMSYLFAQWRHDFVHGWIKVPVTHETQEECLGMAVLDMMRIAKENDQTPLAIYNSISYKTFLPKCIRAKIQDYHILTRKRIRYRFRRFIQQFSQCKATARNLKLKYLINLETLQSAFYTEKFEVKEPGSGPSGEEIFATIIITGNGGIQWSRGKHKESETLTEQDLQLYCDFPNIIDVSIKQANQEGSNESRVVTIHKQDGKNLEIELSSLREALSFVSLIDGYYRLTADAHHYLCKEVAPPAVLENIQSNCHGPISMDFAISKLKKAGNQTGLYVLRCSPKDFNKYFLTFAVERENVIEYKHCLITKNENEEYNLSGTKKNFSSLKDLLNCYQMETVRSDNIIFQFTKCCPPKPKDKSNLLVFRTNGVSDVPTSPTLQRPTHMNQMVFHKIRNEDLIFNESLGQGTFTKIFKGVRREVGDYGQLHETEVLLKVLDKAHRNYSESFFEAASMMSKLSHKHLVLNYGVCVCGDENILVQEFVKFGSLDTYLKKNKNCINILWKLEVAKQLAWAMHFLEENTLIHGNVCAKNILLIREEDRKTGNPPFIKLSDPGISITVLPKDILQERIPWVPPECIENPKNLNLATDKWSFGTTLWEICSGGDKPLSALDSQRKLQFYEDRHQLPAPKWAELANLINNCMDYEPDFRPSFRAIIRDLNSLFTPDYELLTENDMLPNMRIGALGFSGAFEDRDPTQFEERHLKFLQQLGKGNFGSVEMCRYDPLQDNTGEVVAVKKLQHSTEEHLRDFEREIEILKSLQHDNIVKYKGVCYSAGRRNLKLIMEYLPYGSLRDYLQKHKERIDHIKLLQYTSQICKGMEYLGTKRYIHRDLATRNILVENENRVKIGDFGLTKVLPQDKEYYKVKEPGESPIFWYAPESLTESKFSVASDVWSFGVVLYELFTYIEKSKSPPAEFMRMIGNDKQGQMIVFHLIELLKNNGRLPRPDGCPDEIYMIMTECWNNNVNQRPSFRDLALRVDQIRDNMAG
T10 sequence (Q9P1W9 whole entry): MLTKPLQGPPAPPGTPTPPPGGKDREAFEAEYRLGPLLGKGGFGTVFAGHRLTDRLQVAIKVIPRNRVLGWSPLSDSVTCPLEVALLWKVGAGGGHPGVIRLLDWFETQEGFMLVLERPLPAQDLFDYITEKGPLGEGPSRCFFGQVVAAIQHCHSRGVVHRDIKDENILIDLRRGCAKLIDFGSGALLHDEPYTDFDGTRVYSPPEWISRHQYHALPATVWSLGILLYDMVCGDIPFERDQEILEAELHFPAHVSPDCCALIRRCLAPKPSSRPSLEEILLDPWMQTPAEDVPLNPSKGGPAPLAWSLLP
T8 sequence (P49841 whole entry): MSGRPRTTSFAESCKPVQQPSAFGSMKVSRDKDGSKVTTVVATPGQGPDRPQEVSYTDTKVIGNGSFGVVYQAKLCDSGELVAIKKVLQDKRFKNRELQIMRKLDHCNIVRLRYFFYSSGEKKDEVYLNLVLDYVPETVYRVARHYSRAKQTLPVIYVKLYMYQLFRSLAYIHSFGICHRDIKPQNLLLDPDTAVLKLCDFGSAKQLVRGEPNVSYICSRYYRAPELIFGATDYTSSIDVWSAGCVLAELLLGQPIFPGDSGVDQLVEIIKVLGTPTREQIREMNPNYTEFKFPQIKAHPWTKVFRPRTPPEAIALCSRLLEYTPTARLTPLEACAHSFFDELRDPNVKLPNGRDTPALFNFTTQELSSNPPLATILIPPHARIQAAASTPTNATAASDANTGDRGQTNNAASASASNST

## CN1CCN(c2ccc(Nc3ncc(F)c(Nc4ccc(Cl)cc4C(N)=O)n3)cc2)CC1 [SKLB-850, 5-chloro-2-((5-fluoro-2-((4-(4-methylpiperazin-1-yl)phenyl)amino)pyrimidin-4-yl)amino) benzamide]
[1]
  IC50: 690 nM
[2]
  IC50: > 20000 nM
  IC50 anti-viability: did not exhibit activity
[3]
  IC50: 30 nM
[4]
  IC50: 900 nM
[5]
  IC50: 1950 nM
[6]
  IC50: 1600 nM
[7]
  IC50: > 20000 nM
  IC50 anti-viability: did not exhibit activity
[8]
  IC50: 7240 nM
[9]
  IC50: 2200 nM
[10]
  IC50: 7230 nM
[11]
  IC50: 2190 nM
[12]
  IC50: 2190 nM
[13]; H358, Human non-small cell lung cancer cells
  IC50 anti-viability: did not exhibit activity
[13]; NCI-H358, H358, Human non-small cell lung cancer cells
  IC50: > 20000 nM
[14]
  IC50: 900 nM
[15]
  IC50: > 10000 nM
[16]
  IC50: > 10000 nM
[17]
  IC50: 390 nM
[18]
  IC50: > 10000 nM
[19]
  IC50: > 10000 nM
[20]
  IC50: 41 nM
[21]
  IC50: 3180 nM
[22]
  IC50: > 10000 nM
[23]
  IC50: 260 nM and 255 nM
[24]
  IC50: > 10000 nM
[25]
  IC50: 47 nM
[26]
  IC50: > 10000 nM
